Results as given in patent US12606552B2, “Bifunctional compound, preparation method therefor, and use thereof” (SUZHOU KINTOR PHARMACEUTICALS, INC., priority 2020, dated 2026).

Target: T1, AR (Homo sapiens, UniProt P10275, T878A)
T1 sequence (P10275 1-920 T878A): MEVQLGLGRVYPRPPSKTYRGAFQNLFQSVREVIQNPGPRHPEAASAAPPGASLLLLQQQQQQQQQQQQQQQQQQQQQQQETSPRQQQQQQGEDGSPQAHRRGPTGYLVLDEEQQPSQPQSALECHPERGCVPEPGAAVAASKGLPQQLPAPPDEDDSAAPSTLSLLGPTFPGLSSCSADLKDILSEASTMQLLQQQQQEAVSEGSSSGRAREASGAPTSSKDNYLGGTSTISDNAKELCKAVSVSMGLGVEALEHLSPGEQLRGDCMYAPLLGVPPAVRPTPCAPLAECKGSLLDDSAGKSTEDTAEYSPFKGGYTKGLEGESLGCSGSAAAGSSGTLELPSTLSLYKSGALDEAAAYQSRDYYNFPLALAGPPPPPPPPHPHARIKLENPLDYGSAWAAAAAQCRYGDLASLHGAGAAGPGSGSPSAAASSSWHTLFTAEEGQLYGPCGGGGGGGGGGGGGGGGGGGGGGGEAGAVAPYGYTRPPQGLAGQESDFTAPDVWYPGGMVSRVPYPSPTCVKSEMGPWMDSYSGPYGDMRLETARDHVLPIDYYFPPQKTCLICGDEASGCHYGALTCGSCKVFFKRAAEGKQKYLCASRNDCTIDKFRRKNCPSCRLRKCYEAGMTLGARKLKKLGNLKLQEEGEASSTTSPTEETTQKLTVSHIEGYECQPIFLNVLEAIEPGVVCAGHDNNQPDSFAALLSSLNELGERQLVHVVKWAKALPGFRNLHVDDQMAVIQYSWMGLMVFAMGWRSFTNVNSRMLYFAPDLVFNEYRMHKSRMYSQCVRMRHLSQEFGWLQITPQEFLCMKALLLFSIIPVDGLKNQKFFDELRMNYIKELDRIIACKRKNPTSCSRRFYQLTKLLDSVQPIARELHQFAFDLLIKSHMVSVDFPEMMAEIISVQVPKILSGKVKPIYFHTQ
Experiment: Effects of compounds on AR expression in LNCaP cells (ELISA, DC50)
Format: cell-based
Parameters: Measurement of the Effects of Drugs on the Expression of AR in Cells by ELISA Method; endogenous in cells; host or cells: LNCaP
Settings: 24 hours of drug treatment, AR by ELISA
Summary of the method: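 LNCaP cells at about 15,000/well were treated for 24 h with compound at 0.0001–2 μmol/L final. AR in cell lysates was measured by ELISA (OD450). Inhibition was relative to DMSO control after blank subtraction, and DC50 was calculated from it.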

Row | SMILES | DC50
1 | Cc1ncsc1-c1ccc(CNC(=O)[C@@H]2C[C@@H](O)CN2C(=O)[C@@H](NC(=O)CCCn2cc(COc3ccc(-c4ccc(N5C(=S)N(c6ccc(C#N)c(C(F)(F)F)c6F)C(=O)C5(C)C)cn4)cc3)nn2)C(C)(C)C)cc1 [Compound A81] | 63.3 nM
2 | Cc1ncsc1-c1ccc(CNC(=O)[C@@H]2C[C@@H](O)CN2C(=O)[C@@H](NC(=O)CN2CCN(CCc3ccc(-c4ccc(N5C(=S)N(c6ccc(C#N)c(C(F)(F)F)c6F)C(=O)C5(C)C)cn4)cc3)CC2)C(C)(C)C)cc1 [Compound A69] | 39.4 nM
3 | Cc1ncsc1-c1ccc(CNC(=O)[C@@H]2C[C@@H](O)CN2C(=O)[C@@H](NC(=O)COCC(F)C(F)COc2ccc(-c3ccc(N4C(=S)N(c5ccc(C#N)c(C(F)(F)F)c5F)C(=O)C4(C)C)cn3)cc2)C(C)(C)C)cc1 (stereo partly drawn) [Compound A169] | 92.6 nM
4 | CC1(C)C(=O)N(c2ccc(C#N)c(C(F)(F)F)c2F)C(=S)N1c1ccc(-c2ccc(OC3CCN(C(=O)COc4cccc5c4C(=O)N(C4CCC(=O)NC4=O)C5=O)C3)cc2)nc1 (stereo not drawn) [Compound A44] | > 2000 nM
5 | Cc1ncsc1-c1ccc(CNC(=O)[C@@H]2C[C@@H](O)CN2C(=O)[C@@H](NC(=O)COCCCCN2CCC(c3ccc(N4C(=S)N(c5ccc(C#N)c(C(F)(F)F)c5F)C(=O)C4(C)C)cn3)CC2)C(C)(C)C)cc1 [Compound A141] | > 2000 nM
6 | CC(C)(C)[C@H](NC(=O)COCCCCOc1ccc(-c2ccc(N3C(=S)N(c4ccc(C#N)c(C(F)(F)F)c4F)C(=O)C3(C)C)cn2)cc1C(F)(F)F)C(=O)N1C[C@H](O)C[C@H]1C(=O)NCc1ccccc1 [Compound A122] | 155 nM
7 | CC(C)(C)[C@H](NC(=O)COCCCCOc1ccc(-c2ncc(N3C(=S)N(c4ccc(C#N)c(C(F)(F)F)c4F)C(=O)C3(C)C)cc2F)c(C(F)(F)F)c1)C(=O)N1C[C@H](O)C[C@H]1C(=O)NCc1ccccc1 [Compound A132] | 161 nM
8 | CC1(C)C(=O)N(c2ccc(C#N)c(C(F)(F)F)c2F)C(=S)N1c1cnc(-c2ccc(OCC(=O)NCCNc3cccc4c3C(=O)N(C3CCC(=O)NC3=O)C4=O)c(F)c2)c(F)c1 (stereo not drawn) [Compound A41] | 59 nM
9 | Cc1ncsc1-c1ccc(CNC(=O)[C@@H]2C[C@@H](O)CN2C(=O)[C@@H](NC(=O)COCCOc2c(F)cc(-c3ncc(N4C(=S)N(c5ccc(C#N)c(C(F)(F)F)c5F)C(=O)C4(C)C)cc3F)cc2F)C(C)(C)C)cc1 [Compound A87] | 54.6 nM
10 | Cc1ncoc1-c1c[nH]c([C@@H]2C[C@@H](O)CN2C(=O)[C@@H](NC(=O)COCCCCOc2ccc(-c3ccc(N4C(=S)N(c5ccc(C#N)c(C(F)(F)F)c5F)C(=O)C4(C)C)cn3)cc2)C(C)(C)C)n1 [Compound A225] | 92.1 nM
11 | Cc1ncsc1-c1ccc(CNC(=O)[C@@H]2C[C@@H](O)CN2C(=O)[C@@H](NC(=O)COCC(F)(F)CCOc2ccc(-c3ccc(N4C(=S)N(c5ccc(C#N)c(C(F)(F)F)c5F)C(=O)C4(C)C)cn3)cc2)C(C)(C)C)cc1 [Compound A175] | 123 nM
12 | CNC(=O)c1ccc(-c2c[nH]c([C@@H]3C[C@@H](O)CN3C(=O)[C@@H](NC(=O)COCCCCOc3ccc(-c4ccc(N5C(=S)N(c6ccc(C#N)c(C(F)(F)F)c6F)C(=O)C5(C)C)cn4)cc3)C(C)(C)C)n2)cc1 [Compound A234] | 26.1 nM
13 | Cc1ncsc1-c1ccc([C@H](C)NC(=O)[C@@H]2C[C@@H](O)CN2C(=O)[C@@H](NC(=O)COCC(F)C(F)COc2c(F)cc(-c3ncc(N4C(=S)N(c5ccc(C#N)c(C(F)(F)F)c5F)C(=O)C4(C)C)cc3F)cc2F)C(C)(C)C)cc1 (stereo partly drawn) [Compound A144] | 635 nM
14 | Cc1ncsc1-c1ccc(CNC(=O)[C@@H]2C[C@@H](O)CN2C(=O)[C@@H](NC(=O)COCCCCOc2ccc(-c3ncc(N4C(=S)N(c5ccc(C#N)c(C(F)(F)F)c5F)C(=O)C4(C)C)cc3C(F)(F)F)cc2C#N)C(C)(C)C)cc1 [Compound A75] | 89.4 nM
15 | CC(C)(C)[C@H](NC(=O)COCCCCOc1ccc(-c2ncc(N3C(=S)N(c4ccc(C#N)c(C(F)(F)F)c4F)C(=O)C3(C)C)cc2F)cc1F)C(=O)N1C[C@H](O)C[C@H]1C(=O)NCc1ccccc1 [Compound A120] | 216 nM
